Test results: patent publication US20210205291A1, “NITROGENOUS HETEROCYCLIC AMIDE DERIVATIVE, PREPARATION METHOD THEREOF, AND PHARMACEUTICAL APPLICATION” (Sichuan Haisco Pharmaceutical Co., Ltd., priority 2016, published 2021)

Legend:
[1] = target: human muscarine receptor M3 (Homo sapiens, UniProt P20309); experiment: Inhibitory activity against human muscarine receptor M3 (aequorin luminescence in CHO cells, acetylcholine challenge); format: cell-based; settings: CHO cells expressing hM3 and apo-Aequorin; acetylcholine chloride 112.92 nM
Procedure: CHO cells (PerkinElmer, ES-212-AF) that stably express human muscarine receptor 3 (hM3) and apo-Aequorin were cultured at 37° C. 5% CO2 in Ham's F12 media (Invitrogen 12500-062) containing 10% fetal bovine serum (FBS) (Gibico 10099-141), 400 μg/mL G418 (sigma G5013) and 250 μg/mL Zeocin (Invivogen ant-zn-5p), until a confluency of 90% to 100% was reached. Cells were separated by rinsing with PBS/5 mM EDTA, collected by centrifugation, re-suspended in phenol red-free Ham's F12 media (Invitrogen 12500-062) containing 0.1% BSA (BOVOGEN BSAS 100), and counted. The cell concentration was adjusted to 1×10^6 cells/ml. 15 ml of the cell suspension was added to a 50-ml centrifuge tube, to which Coelenterazine-h (Promega S2011) was added to a final concentration of 5 μM. The tube was wrapped with a tin foil to shade light, and incubated on a rotary shaker at 20° C. for 4 hours. The cells were diluted with a phenol red-free/0.1% BSA Ham's F12 medium to a final concentration of 5.0/10^5 cells/ml, placed on a rotary shaker in low-speed rotation, and incubated at room temperature for at least 1 hour. The compounds of the Examples were formulated with DMSO into 10 mM stock solutions, diluted in series with a phenol red-free/0.1% BSAHam's F12 medium (log(M): −7, −8, −9, −10, −11), and added to a 96-well plate at 50 μl/well. 50 μl cell suspension was further added to each well (25,000 cells/well) and incubated for 15 min at room temperature. The 96-well plate was placed under a microplate reader (Perkin Elmer, Envision), and a 50 μl solution of acetylcholine chloride (Sigma A6625) was added to each well at a concentration of 112.92 nM (hM3) with a microplate reader sample injector. The luminescence was recorded over 20 seconds, and IC50 values were calculated and analyzed by Origin 7.5.

[2] = target: human β2-adrenergic receptor (Homo sapiens, UniProt P07550); experiment: Agonistic activity on human β2-adrenergic receptor (LANCE Ultra cAMP Assay in CHO cells); format: cell-based; settings: CHO cells expressing hβ2; cAMP TR-FRET
Procedure: The agonistic activity of the compounds of the Examples on the human adrenergic receptor was measured by the LANCE Ultra cAMP Assay.
CHO cells (PerkinElmer, ES-034-AF) that stably express human adrenergic receptor (hβ2) were cultured at 37° C. 5% CO2 in MEM-alpha media (Invitrogen 12561-056) containing 10% fetal bovine serum (FBS) (Gibico 10099-141) and 250 μg/ml Zeocin (InvivoGen ant-zn-5p), until a confluency of 90% to 100% was reached. Then the agonism on cAMP was tested by using a LANCE Ultra cAMP Assay kit (PerkinElmer TRF0263). Cells were separated with PBS/5 mM EDTA, collected by centrifugation, re-suspended in Stimulation Buffer (1×HBSS, 5 mM HEPES, 0.5 mM IBMX, 0.1% BSA, pH=7.4), and adjusted to a cell concentration of 6×10^5 cells/ml. The compounds of the Examples were formulated with DMSO into 10 mM stock solutions, diluted in series with Stimulation Buffer, and added to a 384-well plate at 5 μl/well. 5 μl cell suspension was further added to each well (3,000 cells/well), incubated for 30 min at room temperature, then 5 μl of a 4×Eu-cAMP trace working solution was added to each well, and then 5 μl of a 4×Ulight-anti-cAMP working solution was added to each well, followed by incubation at room temperature for 1 hour. The 384-well plate was detected for TR-FRET under a microplate reader (Perkin Elmer, Envision), and EC50 values were calculated and analyzed by Origin 7.5.

[3] = test system: methacholine-induced bronchoconstriction in guinea pigs; experiment: Inhibition against methacholine-induced bronchoconstriction in guinea pigs (PenH, whole-body plethysmograph); format: in vivo; settings: intratracheal, 0.3 nmol per animal, 3 mg/ml methacholine; for PenH Inhibition (%) 4 h: 4 h after administration; for PenH Inhibition (%) 24 h: 24 h after administration
Procedure: 8-week-old guinea pigs (all male) were purchased from Vital River Laboratory Animal Technology Co., Ltd., and adapted for 3 days before the experiments were started. The test compounds were formulated into 0.6 mM stock solutions with 83% dry ethanol+17% Tween80, which were diluted 500 times before administration. Before administration, the animals were anesthetized with 5% isoflurane by using a small-animal anesthetic apparatus (Matrx: VME2), wherein the anesthetic duration was 1.5 to 2 min. The anesthetized guinea pigs were fixed on a tracheal cannula platform, and intratracheally administrated with the compounds at 250 μl/animal by using a rat liquid-aerosol administration kit (penn-century; MSA-250-R). 4 hours and 24 hours after administration, the enhanced pauses (PenH) of the guinea pigs were measured in a whole-body plethysmograph (DSI; GS220A12-R7B). 3 mg/ml methacholine (Mch) was administrated by nebulization for 36 sec, and data was recorded over 7 min. The average of PenH was calculated (see J Pharmacol Exp Ther 345:260-270).
PenH calculation formula: PenH=PEP/PIP*Pause; Pause=(Te−Tr)/Tr
Te: Duration of expiratory phase (s)
Tr: Duration of relaxation phase (s)
PEP: Expiratory peak flow rate (ml/s)
PIP: Inspiratory peak flow rate (ml/s)

[4] = Pharmacokinetic evaluation in SD rats; format: in vivo
Procedure: 18 male SD rats, eight weeks old, were purchased from Vital River Laboratory Animal Technology Co., Ltd., and adapted for 3 days before the experiments were started. The SD rats were randomized into 3 groups, fasted one day before administration but allowed access to water. The 3 groups of animals were administrated with 1 mg/kg compound either by tail vein injection (iv) or by intratracheal (it) administration. The compounds were formulated into 20 mg/ml stock solutions with 83% ethanol and 17% Tween80. For intravenous injection, 0.1 ml of the stock solution was diluted to the final volume with 9.9 ml physiological saline. For intratracheal administration, 0.25 ml of the stock solution was diluted with 4.75 ml physiological saline to the final volume. For the group for intravenous injection, right before administration (0 h) and 5 min, 15 min, 30 min, 1.0, 2.0, 4.0, 8.0, 24.0 h after administration, 0.1 ml blood was taken from the orbit, heparin was added for anticoagulation, and plasma was separated after centrifugation at 4° C., 3000 rpm for 10 min and stored at −80° C. before testing. For the group for intratracheal administration, right before administration and 5 min, 15 min, 30 min, 1.0, 2.0, 4.0, 8.0, 24.0 h after administration, blood was taken and treated the same way as for the group for intravenous injection. 30 μl plasma of rat at each of the time points was mixed with 200 μl acetonitrile solution containing an internal standard, vortexed for 1 min, and centrifuged at 11300 rpm for 10 min, and 175 μl of the supernatant was added to a 96-well plated for LC-MS/MS analysis. The major pharmacokinetic parameters were analyzed using the software WinNonlin 6.3 at the non-compartment mode.

[5] = Sprague-Dawley (SD), rat, inhaled or intranasal, male SD rats, it (intratracheal), 1 mg/kg, plasma
[6] = Sprague-Dawley (SD), rat, male SD rats, iv (tail vein), 1 mg/kg, plasma

Sequence of human β2-adrenergic receptor (P07550 whole entry): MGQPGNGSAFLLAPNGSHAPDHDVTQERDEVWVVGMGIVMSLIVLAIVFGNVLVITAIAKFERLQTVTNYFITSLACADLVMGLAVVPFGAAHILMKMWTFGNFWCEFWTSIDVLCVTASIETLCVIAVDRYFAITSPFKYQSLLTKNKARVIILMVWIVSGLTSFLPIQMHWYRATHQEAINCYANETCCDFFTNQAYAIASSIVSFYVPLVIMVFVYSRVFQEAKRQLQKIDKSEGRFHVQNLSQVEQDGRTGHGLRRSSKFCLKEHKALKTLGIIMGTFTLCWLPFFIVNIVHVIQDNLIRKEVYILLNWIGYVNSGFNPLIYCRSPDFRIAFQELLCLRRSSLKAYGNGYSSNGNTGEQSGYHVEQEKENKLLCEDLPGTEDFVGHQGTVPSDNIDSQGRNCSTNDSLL
Sequence of human muscarine receptor M3 (P20309 whole entry): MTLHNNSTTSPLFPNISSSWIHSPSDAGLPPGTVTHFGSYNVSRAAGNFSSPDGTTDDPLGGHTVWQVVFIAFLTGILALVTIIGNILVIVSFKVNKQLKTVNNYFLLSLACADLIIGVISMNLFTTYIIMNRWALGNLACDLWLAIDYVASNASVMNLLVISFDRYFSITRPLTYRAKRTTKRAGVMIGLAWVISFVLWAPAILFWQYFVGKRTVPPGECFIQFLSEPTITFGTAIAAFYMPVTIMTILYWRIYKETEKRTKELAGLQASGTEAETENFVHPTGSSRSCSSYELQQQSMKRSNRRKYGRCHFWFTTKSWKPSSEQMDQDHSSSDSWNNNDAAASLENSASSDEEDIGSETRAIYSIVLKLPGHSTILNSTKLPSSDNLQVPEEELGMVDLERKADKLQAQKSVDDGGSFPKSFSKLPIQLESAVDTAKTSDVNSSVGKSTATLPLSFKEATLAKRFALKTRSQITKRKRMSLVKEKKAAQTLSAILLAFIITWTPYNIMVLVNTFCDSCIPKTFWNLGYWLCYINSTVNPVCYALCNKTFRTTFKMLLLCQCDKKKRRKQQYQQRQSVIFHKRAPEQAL

`O=C(Nc1ccccc1-c1ccccc1)OC1CCN(CCC(=O)N2CCC(C(=O)Nc3ccc(CNC[C@H](O)c4ccc(O)c5[nH]c(=O)ccc45)cc3)CC2)CC1` [Compound 1, [1-[3-[4-[[4-[[[(2R)-2-hydroxy-2-(8-hydroxy-2-oxo-1H-quinolin-5-yl)ethyl]amino]methyl]phenyl]carbamoyl]-1-piperidyl]-3-oxo-propyl]-4-piperidyl]N-(2-phenylphenyl)carbamate; ditrifluoroacetic acid] gave an IC50 [1] of 14.4 nM.
In the case of `O=C(Nc1ccc(CNC[C@H](O)c2ccc(O)c3[nH]c(=O)ccc23)cc1)OCC1CCN(C(=O)CCN2CCC(OC(=O)Nc3ccccc3-c3ccccc3)CC2)CC1` [Compound 2, [1-[3-[4-[(2-phenylphenyl)carbamoyloxy]-1-piperidyl]propanoyl]-4-piperidyl]methyl N-[4-[[[(2R)-2-hydroxy-2-(8-hydroxy-2-oxo-1H-quinolin-5-yl)ethyl]amino]methyl]phenyl]carbamate; ditrifluoroacetic acid], the EC50 [2] is reported as 1.85 nM, the “PenH Inhibition (%) 4 h” value [3] is reported as 94.8% and the “PenH Inhibition (%) 24 h” value [3] is reported as 53.8%. It also gave an IC50 [1] of 1.69 nM, an AUC(0-inf) [4, 5] of 11.6 ng·h/mL and a Cmax [4, 5] of 7.08 ng/mL. The Tmax [4, 5] was 34.8 min, the half-life [4, 5] was 45 min and the AUC(0-inf) [4, 6] was 9.27 ng·h/mL. The half-life [4, 6] was 27.6 min and the “in vivo exposure level” value ([4]; after iv and it administrations, rats, in words) was “low in vivo exposure level”.
For `COc1cc(NC(=O)OCC2CCN(C(=O)CCN3CCC(OC(=O)Nc4ccccc4-c4ccccc4)CC3)CC2)c(Cl)cc1CNC[C@H](O)c1ccc(O)c2[nH]c(=O)ccc12` [Compound 3, [1-[3-[4-[(2-phenylphenyl)carbamoyloxy]-1-piperidyl]propanoyl]-4-piperidyl]methyl N-[2-chloro-4-[[[(2R)-2-hydroxy-2-(8-hydroxy-2-oxo-1H-quinolin-5-yl)ethyl]amino]methyl]-5-methoxy-phenyl]carbamate; di(2,2,2-trifluoroacetic acid)], the EC50 [2] was 10.2 nM and the IC50 [1] was 3.76 nM.
With `COc1cc(NC(=O)OC[C@@H]2CCN(C(=O)CCN3CCC(OC(=O)Nc4ccccc4-c4ccccc4)CC3)C2)c(Cl)cc1CNC[C@H](O)c1ccc(O)c2[nH]c(=O)ccc12` [Compound 4, [(3R)-1-[3-[4-[(2-phenylphenyl)carbamoyloxy]-1-piperidyl]propanoyl]pyrrolidin-3-yl]methyl N-[2-chloro-4-[[[(2R)-2-hydroxy-2-(8-hydroxy-2-oxo-1H-quinolin-5-yl)ethyl]amino]methyl]-5-methoxy-phenyl]carbamate; di(2,2,2-trifluoro)acetic acid] the IC50 [1] was 2.26 nM.
For `COc1cc(NC(=O)OC[C@H]2CCN(C(=O)CCN3CCC(OC(=O)Nc4ccccc4-c4ccccc4)CC3)C2)c(Cl)cc1CNC[C@H](O)c1ccc(O)c2[nH]c(=O)ccc12` [Compound 5, [(3S)-1-[3-[4-[(2-phenylphenyl)carbamoyloxy]-1-piperidyl]propanoyl]pyrrolidin-3-yl]methyl N-[2-chloro-4-[[[(2R)-2-hydroxy-2-(8-hydroxy-2-oxo-1H-quinolin-5-yl)ethyl]amino]methyl]-5-methoxy-phenyl]carbamate; ditrifluoroacetic acid], the “PenH Inhibition (%) 4 h” value [3] was 96.4%, the “PenH Inhibition (%) 24 h” value [3] was 78.6% and the IC50 [1] was 0.89 nM.
Work on `CN(CCNC[C@H](O)c1ccc(O)c2[nH]c(=O)ccc12)C(=O)C1CCN(C(=O)CCN2CCC(OC(=O)Nc3ccccc3-c3ccccc3)CC2)CC1` [Compound 6, [1-[3-[4-[2-[[(2R)-2-hydroxy-2-(8-hydroxy-2-oxo-1H-quinolin-5-yl)ethyl]amino]ethyl-methyl-carbamoyl]-1-piperidyl]-3-oxo-propyl]-4-piperidyl]N-(2-phenylphenyl)carba mate; ditrifluoroacetic acid] yielded an EC50 [2] of 17.4 nM and an IC50 [1] of 6.49 nM.
In the case of `O=C(Nc1ccc(CNC[C@H](O)c2ccc(O)c3[nH]c(=O)ccc23)cc1F)OCC1CCN(C(=O)CCN2CCC(OC(=O)Nc3ccccc3-c3ccccc3)CC2)CC1` [Compound 7, [1-[3-[4-[(2-phenylphenyl)carbamoyloxy]-1-piperidyl]propanoyl]-4-piperidyl]methyl N-[2-fluoro-4-[[[(2R)-2-hydroxy-2-(8-hydroxy-2-oxo-1H-quinolin-5-yl)ethyl]amino]methyl]phenyl]carbamate; ditrifluoroacetic acid], the EC50 [2] is reported as 6.01 nM, the “PenH Inhibition (%) 4 h” value [3] is reported as 72.1% and the “PenH Inhibition (%) 24 h” value [3] is reported as 55.8%. The IC50 [1] was 1.31 nM.
In the case of `O=C(Nc1ccc(CNC[C@H](O)c2ccc(O)c3[nH]c(=O)ccc23)c(F)c1)OCC1CCN(C(=O)CCN2CCC(OC(=O)Nc3ccccc3-c3ccccc3)CC2)CC1` [Compound 8, [1-[3-[4-[(2-phenylphenyl)carbamoyloxy]-1-piperidyl]propanoyl]-4-piperidyl]methyl N-[3-fluoro-4-[[[(2R)-2-hydroxy-2-(8-hydroxy-2-oxo-1H-quinolin-5-yl)ethyl]amino]methyl]phenyl]carbamate; ditrifluoroacetic acid], the EC50 [2] is reported as 3.34 nM, the “PenH Inhibition (%) 4 h” value [3] is reported as 78.2% and the “PenH Inhibition (%) 24 h” value [3] is reported as 45.3%. For the same compound, the IC50 [1] was 3.33 nM.
For `O=C(CC1CCN(C(=O)CCN2CCC(OC(=O)Nc3ccccc3-c3ccccc3)CC2)CC1)Nc1ccc(CNC[C@H](O)c2ccc(O)c3[nH]c(=O)ccc23)cc1` [Compound 9, [1-[3-[4-[2-[4-[[[(2R)-2-hydroxy-2-(8-hydroxy-2-oxo-1H-quinolin-5-yl)ethyl]amino]methyl]anilino]-2-oxo-ethyl]-1-piperidyl]-3-oxo-propyl]-4-piperidyl]N-(2-phenylphenyl)carbamate; di(trifluoroacetic acid)], the EC50 [2] was 3.96 nM and the IC50 [1] was 3.73 nM.
